{"source": "ChEMBL document CHEMBL1201862", "about": "“PubChem BioAssay data set” (2004)", "key": {"[1]": {"molecular_target": "T1, Tyrosine-protein phosphatase non-receptor type 22 (Homo sapiens, UniProt Q9Y2R2)", "T1 sequence (Q9Y2R2 whole entry)": "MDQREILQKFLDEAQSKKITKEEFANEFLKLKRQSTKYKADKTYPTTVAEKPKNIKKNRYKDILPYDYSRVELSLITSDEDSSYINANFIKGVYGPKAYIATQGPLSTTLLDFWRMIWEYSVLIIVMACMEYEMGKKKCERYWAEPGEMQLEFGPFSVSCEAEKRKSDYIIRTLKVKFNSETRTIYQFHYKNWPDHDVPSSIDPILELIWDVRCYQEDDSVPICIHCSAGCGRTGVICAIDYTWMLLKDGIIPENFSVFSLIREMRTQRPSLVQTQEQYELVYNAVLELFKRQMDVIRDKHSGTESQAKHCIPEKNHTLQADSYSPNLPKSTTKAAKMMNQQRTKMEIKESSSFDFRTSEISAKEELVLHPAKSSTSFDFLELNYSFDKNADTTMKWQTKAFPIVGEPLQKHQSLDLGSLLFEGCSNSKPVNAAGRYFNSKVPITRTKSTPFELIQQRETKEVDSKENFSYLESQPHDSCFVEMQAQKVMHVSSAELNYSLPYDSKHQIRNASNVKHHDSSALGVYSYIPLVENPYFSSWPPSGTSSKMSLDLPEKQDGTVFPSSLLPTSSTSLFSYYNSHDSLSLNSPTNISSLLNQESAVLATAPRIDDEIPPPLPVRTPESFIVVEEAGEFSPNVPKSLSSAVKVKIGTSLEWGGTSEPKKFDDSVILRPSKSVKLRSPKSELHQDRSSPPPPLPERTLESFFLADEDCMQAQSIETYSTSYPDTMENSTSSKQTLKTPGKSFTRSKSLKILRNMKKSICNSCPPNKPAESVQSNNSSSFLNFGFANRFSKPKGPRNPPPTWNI", "assay": "SAR LYP1 Fluorescent Assay using pCAP substrate for In Vitro dose response studies - Set 2. [Related pubchem assays (depositor defined):AID1779, AID1784, AID2135, AID449727]", "type": "functional"}, "[2]": {"molecular_target": "Tyrosine-protein phosphatase non-receptor type 12 (Homo sapiens, UniProt Q05209)", "sequence (Q05209 whole entry)": "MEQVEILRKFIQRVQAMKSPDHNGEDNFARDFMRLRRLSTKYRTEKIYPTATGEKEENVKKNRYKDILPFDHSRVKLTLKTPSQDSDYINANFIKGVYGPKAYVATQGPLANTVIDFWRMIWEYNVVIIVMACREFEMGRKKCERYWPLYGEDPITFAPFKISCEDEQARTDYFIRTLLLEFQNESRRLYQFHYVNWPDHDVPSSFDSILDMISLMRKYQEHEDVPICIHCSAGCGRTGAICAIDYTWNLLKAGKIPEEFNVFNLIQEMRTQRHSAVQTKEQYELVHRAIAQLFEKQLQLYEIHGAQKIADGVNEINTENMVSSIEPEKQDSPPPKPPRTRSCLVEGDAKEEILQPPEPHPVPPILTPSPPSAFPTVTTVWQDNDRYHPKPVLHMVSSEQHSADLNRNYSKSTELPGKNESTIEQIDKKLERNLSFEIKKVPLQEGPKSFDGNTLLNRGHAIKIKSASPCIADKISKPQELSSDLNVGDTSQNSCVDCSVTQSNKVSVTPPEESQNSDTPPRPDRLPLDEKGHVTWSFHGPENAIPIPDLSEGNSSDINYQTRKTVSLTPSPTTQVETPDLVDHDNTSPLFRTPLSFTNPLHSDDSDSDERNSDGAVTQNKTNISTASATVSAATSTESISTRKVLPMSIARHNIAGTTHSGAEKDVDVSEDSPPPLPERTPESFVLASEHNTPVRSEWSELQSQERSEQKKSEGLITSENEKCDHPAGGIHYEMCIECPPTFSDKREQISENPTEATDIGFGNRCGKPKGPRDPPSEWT", "assay": "SAR Selectivity Analysis of small molecule inhibitors of PEST using pCAP in a fluorescence assay. [Related pubchem assays (depositor defined):AID1779, AID1784, AID2135]", "type": "functional"}, "[3]": {"molecular_target": "T1, Tyrosine-protein phosphatase non-receptor type 22", "assay": "SAR LYP1 Fluorescent Assay using OMFP substrate for In Vitro dose response studies - Set 3. [Related pubchem assays (depositor defined):AID1779, AID1784, AID2140, AID2686]", "type": "functional"}, "[4]": {"molecular_target": "T2, Tyrosine-protein phosphatase non-receptor type 7 (Homo sapiens, UniProt P35236)", "T2 sequence (P35236 whole entry)": "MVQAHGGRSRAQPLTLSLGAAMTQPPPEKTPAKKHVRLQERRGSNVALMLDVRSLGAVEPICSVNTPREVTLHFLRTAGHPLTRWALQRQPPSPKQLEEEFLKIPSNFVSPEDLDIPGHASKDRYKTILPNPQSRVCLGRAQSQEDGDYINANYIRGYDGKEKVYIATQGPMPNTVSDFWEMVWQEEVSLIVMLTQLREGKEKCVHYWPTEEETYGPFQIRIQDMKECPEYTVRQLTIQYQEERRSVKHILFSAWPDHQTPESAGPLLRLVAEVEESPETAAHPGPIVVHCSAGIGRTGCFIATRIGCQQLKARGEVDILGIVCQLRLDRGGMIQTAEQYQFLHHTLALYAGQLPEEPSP", "assay": "inhibition of hematopoietic tyrosine phosphatase HePTP – biochemical, set 2, SAR follow-up (AID 449736)", "type": "functional"}, "[5]": {"molecular_target": "T1, Tyrosine-protein phosphatase non-receptor type 22", "assay": "inhibition of lymphoid tyrosine phosphatase LYP – biochemical, pCAP fluorogenic substrate, fluorescence, set 3, SAR follow-up (AID 449727)", "type": "functional"}, "[6]": {"molecular_target": "T1, Tyrosine-protein phosphatase non-receptor type 22", "assay": "PubChem AID 2135"}, "[7]": {"molecular_target": "T1, Tyrosine-protein phosphatase non-receptor type 22", "assay": "SAR LYP1 Fluorescent Assay using OMFP substrate for In Vitro dose response studies - Set 2. [Related pubchem assays (depositor defined):AID1779, AID1784, AID2140, AID449726, AID488869]", "type": "functional"}, "[8]": {"test_system": "Streptococcus sp. 'group A'", "assay": "Streptococcus pyogenes SK(-)GAS viability under kanamycin – luminescence, BacTiterGlo, confirmation, counter-screen for streptokinase expression inhibitor project, dose response (AID 1900)", "type": "functional, organism-based"}, "Streptokinase A": {"molecular_target": "T3, Streptokinase A (Streptococcus pyogenes serotype M1, UniProt P10520)", "T3 sequence (P10520 whole entry)": "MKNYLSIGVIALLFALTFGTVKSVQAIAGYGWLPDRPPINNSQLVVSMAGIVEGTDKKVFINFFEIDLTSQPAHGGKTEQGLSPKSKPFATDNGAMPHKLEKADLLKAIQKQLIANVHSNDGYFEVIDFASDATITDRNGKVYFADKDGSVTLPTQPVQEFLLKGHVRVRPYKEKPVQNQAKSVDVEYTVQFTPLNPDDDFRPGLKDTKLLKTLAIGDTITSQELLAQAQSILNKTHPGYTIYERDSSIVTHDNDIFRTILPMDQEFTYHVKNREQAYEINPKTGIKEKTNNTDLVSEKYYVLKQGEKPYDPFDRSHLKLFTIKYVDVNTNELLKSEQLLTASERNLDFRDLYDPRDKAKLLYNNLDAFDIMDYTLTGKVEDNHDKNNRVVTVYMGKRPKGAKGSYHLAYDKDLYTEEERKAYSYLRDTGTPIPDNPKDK", "assay": "viability-normalized secreted streptokinase activity reduction – plasminogen activation absorbance, OD405, dose response (AID 1914);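 note: secreted streptokinase activity via plasminogen activation per viability signal from cell pellet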", "type": "functional, Streptococcus pyogenes M1 GAS"}, "[9]": {"molecular_target": "T4, G-protein coupled receptor 55 (Homo sapiens, UniProt Q9Y2T6)", "T4 sequence (Q9Y2T6 whole entry)": "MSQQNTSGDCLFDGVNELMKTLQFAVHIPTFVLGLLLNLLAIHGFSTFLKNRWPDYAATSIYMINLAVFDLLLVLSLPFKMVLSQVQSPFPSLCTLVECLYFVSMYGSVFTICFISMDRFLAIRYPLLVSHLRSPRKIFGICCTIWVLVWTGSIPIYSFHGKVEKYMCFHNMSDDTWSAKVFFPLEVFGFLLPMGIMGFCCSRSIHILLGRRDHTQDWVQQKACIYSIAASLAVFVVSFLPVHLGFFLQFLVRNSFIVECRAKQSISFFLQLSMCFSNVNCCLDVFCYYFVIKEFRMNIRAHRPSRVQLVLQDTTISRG", "assay": "inhibition of LPI-stimulated GPR55 beta-arrestin translocation – imaging, U2OS, beta-arrestin-GFP, LPI agonist, primary screen (AID 2013);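 note: antagonist potency measured as reduced agonist-driven arrestin aggregation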", "type": "functional"}, "Streptococcus": {"test_system": "Streptococcus", "assay": "GAS UMAA2166 growth inhibition – luminescence, BacTiterGlo, counter-screen for streptokinase expression inhibitor project, dose response (AID 1915);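 note: potency for reduction of bacterial viability or growth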", "type": "functional, organism-based"}, "Cannabinoid receptor 1 [10]": {"molecular_target": "T5, Cannabinoid receptor 1 (Homo sapiens, UniProt P21554)", "T5 sequence (P21554 whole entry)": "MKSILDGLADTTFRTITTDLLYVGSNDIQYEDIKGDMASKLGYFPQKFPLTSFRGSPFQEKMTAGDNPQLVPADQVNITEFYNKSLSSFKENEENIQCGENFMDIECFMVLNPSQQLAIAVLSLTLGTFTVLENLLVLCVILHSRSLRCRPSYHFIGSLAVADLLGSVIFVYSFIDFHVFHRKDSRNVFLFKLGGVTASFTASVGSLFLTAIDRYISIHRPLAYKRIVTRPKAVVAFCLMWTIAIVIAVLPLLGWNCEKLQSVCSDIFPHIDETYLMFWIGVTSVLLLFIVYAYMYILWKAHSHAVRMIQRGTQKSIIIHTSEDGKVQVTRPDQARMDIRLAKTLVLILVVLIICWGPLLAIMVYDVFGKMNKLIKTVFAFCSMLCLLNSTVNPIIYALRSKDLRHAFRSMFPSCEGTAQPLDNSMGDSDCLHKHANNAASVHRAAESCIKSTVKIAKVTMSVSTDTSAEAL", "assay": "SAR analysis of antagonists of the Cannabinoid Receptor 1 using an Image-Based Assay - Set 2. [Related pubchem assays (depositor defined):AID2013, AID2026]", "type": "functional"}, "[11]": {"molecular_target": "T6, G-protein coupled receptor 35 (Homo sapiens, UniProt Q9HC97)", "T6 sequence (Q9HC97 whole entry)": "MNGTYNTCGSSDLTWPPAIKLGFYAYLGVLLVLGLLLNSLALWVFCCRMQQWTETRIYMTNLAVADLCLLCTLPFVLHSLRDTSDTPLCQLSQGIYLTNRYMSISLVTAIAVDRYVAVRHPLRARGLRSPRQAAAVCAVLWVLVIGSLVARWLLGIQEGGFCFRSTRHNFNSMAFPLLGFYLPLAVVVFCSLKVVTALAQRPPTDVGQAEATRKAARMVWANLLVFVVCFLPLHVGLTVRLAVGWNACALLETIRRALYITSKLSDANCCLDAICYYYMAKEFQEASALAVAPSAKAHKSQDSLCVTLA", "assay": "SAR analysis of Agonists of the GPR35 Receptor using an Image-Based Assay - Set 2. [Related pubchem assays (depositor defined):AID2013, AID2026]", "type": "functional"}, "Cannabinoid receptor 2 [12]": {"molecular_target": "T7, Cannabinoid receptor 2 (Homo sapiens, UniProt P34972)", "T7 sequence (P34972 whole entry)": "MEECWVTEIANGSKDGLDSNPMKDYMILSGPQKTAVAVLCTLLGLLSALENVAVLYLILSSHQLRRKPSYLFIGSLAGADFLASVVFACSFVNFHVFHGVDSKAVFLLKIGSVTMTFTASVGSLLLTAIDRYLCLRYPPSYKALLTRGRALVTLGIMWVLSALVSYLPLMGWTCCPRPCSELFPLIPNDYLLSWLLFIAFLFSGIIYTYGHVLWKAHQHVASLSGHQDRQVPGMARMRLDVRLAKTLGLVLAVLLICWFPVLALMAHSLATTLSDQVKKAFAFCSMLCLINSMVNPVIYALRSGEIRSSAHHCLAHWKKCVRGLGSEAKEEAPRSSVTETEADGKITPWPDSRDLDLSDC", "assay": "SAR analysis of antagonists of the Cannabinoid Receptor 2 using an Image-Based Assay. [Related pubchem assays (depositor defined):AID2013, AID2026]", "type": "functional"}, "Cannabinoid receptor 1 [13]": {"molecular_target": "T5, Cannabinoid receptor 1", "assay": "SAR analysis of agonists of the Cannabinoid Receptor 1 using an Image-Based Assay - Set 2. [Related pubchem assays (depositor defined):AID2013, AID2026]", "type": "functional"}, "[14]": {"molecular_target": "T6, G-protein coupled receptor 35", "assay": "SAR analysis of Antagonists of the GPR35 Receptor using an Image-Based Assay - Set 3. [Related pubchem assays (depositor defined):AID2013, AID2026]", "type": "functional"}, "[15]": {"molecular_target": "T4, G-protein coupled receptor 55", "assay": "blockade of LPI-induced GPR55 arrestin translocation – imaging, U2OS, beta-arrestin-GFP, LPI agonist, set 2, SAR follow-up (AID 2820)", "type": "functional"}, "Cannabinoid receptor 2 [16]": {"molecular_target": "T7, Cannabinoid receptor 2", "assay": "SAR analysis of agonists of the Cannabinoid Receptor 2 using an Image-Based Assay. [Related pubchem assays (depositor defined):AID2013, AID2026]", "type": "functional"}}, "note": "The source made the active and inactive calls."}
{"smiles": "N#C/C(=C/c1ccc(OCc2ccc(F)cc2)c(Br)c1)c1ccc(C(=O)O)cc1", "values": [{"measurement": "IC50", "setting": "[1]", "result": "10.8 µM (active)"}, {"measurement": "IC50", "setting": "[2]", "result": "7.56 µM (active)"}, {"measurement": "IC50", "setting": "[3]", "result": "37 µM (active)"}, {"measurement": "IC50", "setting": "[4]", "result": "1.36 µM (active)"}, {"measurement": "IC50", "setting": "[5]", "result": "15.8 µM (active)"}, {"measurement": "IC50", "setting": "[6]", "result": "4.37 µM (active)"}, {"measurement": "IC50", "setting": "[7]", "result": "13.7 µM (active)"}]}
{"smiles": "Cc1ccc(-n2cc3c(-c4cccc(Br)c4)nnc(C)c3n2)cc1", "values": [{"measurement": "EC50", "setting": "[8]", "result": "7.37 µM (active)"}, {"measurement": "EC50", "setting": "Streptokinase A", "result": "94.1 µM (active)"}, {"measurement": "IC50", "setting": "[9]", "result": "2.21 µM (active)"}, {"measurement": "EC50", "setting": "Streptococcus", "result": "46.9 µM (active)"}, {"measurement": "IC50", "setting": "Cannabinoid receptor 1 [10]", "result": "2.94 µM (active)"}, {"measurement": "EC50", "setting": "[11]", "result": "> 32 µM (inactive)"}, {"measurement": "IC50", "setting": "Cannabinoid receptor 2 [12]", "result": "23.8 µM (inactive)"}, {"measurement": "EC50", "setting": "Cannabinoid receptor 1 [13]", "result": "> 32 µM (inactive)"}, {"measurement": "IC50", "setting": "[14]", "result": "> 32 µM (inactive)"}, {"measurement": "IC50", "setting": "[15]", "result": "1.24 µM (active)"}, {"measurement": "EC50", "setting": "Cannabinoid receptor 2 [16]", "result": "> 32 µM (inactive)"}]}
